Assay results taken from patent US20180099023A1, “METHODS OF TREATING IRON OVERLOAD” (La Jolla Pharmaceutical Company, priority 2016, published 2018).

How the values were obtained:
Type in all cases: in vivo, human
serum iron [1] = assay: Hepcidin administration in healthy subjects (Example 3)
Protocol: This study enrolled 32 healthy adult subjects in 4 dose groups of 8 subjects per cohort, with 6 subjects assigned to hepcidin treatment and 2 subjects assigned to placebo in each cohort. The starting dose was 5 mg of hepcidin or placebo; subsequent dose groups received 10 mg, 20 mg, and 30 mg, respectively. Subjects received between one and three 1-mL subcutaneous (SC) injections to deliver the desired dose level. Hepcidin concentration was either 5 mg/mL or 10 mg/mL. For data analysis purposes, placebo subjects for all cohort groups were pooled.

serum iron [2] = assay: Serum iron after a single subcutaneous dose of hepcidin in patients (Example 1)
From the text: Patients were recruited for a multi-day study to observe serum iron levels following administration of hepcidin. All patients who were recruited had either refractory or hemolytic anemia or hemochromatosis. Patients are divided into cohorts and subsequently treated with hepcidin. Treatment consisted of a single subcutaneous (SC) dose of hepcidin on Day 1. Dose escalation with new cohorts occurred only after the patients at each dose level had been observed for a minimum of 3 days and no drug related toxicity had been observed. The starting dose level was 1 mg given via SC injection on Day 1. Doses ranged from 1 mg to 30 mg. Patient cohorts and dosing can be found in Table 1:
Patients were admitted to the research unit the day before the administration of study drug and discharged following assessments 48 hours post dose. Serum iron, ferritin, transferrin, total iron binding capacity, and unsaturated iron binding capacity were measured on Day 1(baseline) and Day 7 (end of study). Serum iron was also measured at 2, 4, 8, 24, and 48 hours post dosing.

serum iron [3] = assay: Hepcidin administration in patients at risk for iron overload disorders (Example 2)
Protocol: Eighteen patients at risk for iron overload disorders (i.e., refractory or hemolytic anemia or hemochromatosis) received one or two 1-mL subcutaneous injections to achieve the desired dose level (1 mg, 5 mg, 10 mg, 20 mg, or 30 mg). Hepcidin concentration ranged from 1 to 15 mg/mL.

[4] = Baseline (pre-dose) to Day 8/End of Study

hepcidin: 25-amino acid peptide with the amino acid sequence set forth in SEQ ID NO:1 (DTHFPICIFCCGCCHRSKCGMCCKT)
Unsaturated iron binding capacity (UIBC) change from baseline (serum iron [1]; Day 8): no trends in changes from baseline | Ferritin change from baseline (serum iron [1]; Day 8, all treatment groups): increased | TSAT % change from baseline (serum iron [1]; Day 8, all treatment groups): increased | total iron binding capacity (TIBC) change from baseline (serum iron [1]; Day 8, all treatment groups): increased | transferrin change from baseline (serum iron [1]; Day 8, all treatment groups): increased | anti-drug antibodies (serum iron [1]; healthy subjects): No anti-drug antibodies were detected | maximum reduction in serum iron, 20 mg versus 30 mg (serum iron [1]; healthy subjects): no apparent difference | time for serum iron levels to return to baseline (serum iron [1]; healthy subjects): < 48 h | dose response of serum iron reduction (serum iron [1]; healthy subjects, 5 to 30 mg): larger reductions in serum iron generally associated with increases in dose up to 20 mg | Percent Change in Serum Iron from Baseline to Hour 8 (serum iron [2]; 1 mg single SC dose, n = 3, patients with refractory or hemolytic anemia or hemochromatosis): −14.2% (p = 0.203) | dose response of serum iron reduction (serum iron [2]; 1 mg to 20 mg, FIG. 1, p-0.009 for dose response): dose-dependent, statistically significant reduction in serum iron | Percent Change in Serum Iron from Baseline to Hour 8 (serum iron [2]; 5 mg single SC dose, n = 3, patients with refractory or hemolytic anemia or hemochromatosis): −26.7% (p = 0.380) | Percent Change in Serum Iron from Baseline to Hour 8 (serum iron [2]; 10 mg single SC dose, n = 3, patients with refractory or hemolytic anemia or hemochromatosis): −45.5% (p = 0.077) | reduction of serum iron from baseline to hour 8 (serum iron [2]; 20 mg dose level, p=0.001): 55.7% | Percent Change in Serum Iron from Baseline to Hour 8 (serum iron [2]; 20 mg single SC dose, n = 6, patients with refractory or hemolytic anemia or hemochromatosis): −55.7% (p = 0.001) | reduction of serum iron from baseline to the end of day 7 (serum iron [2]; subjects administered 1 mg, 5 mg, 10 mg or 20 mg, serum iron had not returned to baseline through day 7): 18.0% | serum iron rebound (serum iron [2]; subjects administered at least 30 mg): rebound effect which resulted in above-baseline serum iron levels within 48 hours of treatment | dose response of serum iron decrease (serum iron [3]; 1 mg to 30 mg SC): greater decrease in serum iron at higher doses | Mean maximum percentage reduction in serum iron (serum iron [3]; 20-mg dose group, 8 hours post-dose): 58% | TSAT % level change (serum iron [3]; [4]): Decreases | ferritin level change (serum iron [3]; [4]): Decreases | total iron binding capacity (TIBC) change (serum iron [3]; [4]): Decreases | transferrin level change (serum iron [3]; [4]): Decreases | serum iron levels compared to baseline (serum iron [3]; all five dose groups (1, 5, 10, 20, 30 mg SC)): decrease in serum iron levels compared to baseline was generally observed | duration of serum iron reduction (serum iron [3]; most patients): sustained up to Day 8 in most patients | anti-drug antibodies (serum iron [3]; patients at risk for iron overload disorders): No anti-drug antibodies were detected
